Experiments:
[1] = tested on: 293T cells; experiment: Cellular cytotoxicity by counting cells after 48 hrs with compound vs DMSO; format: cell-based
Method: To screen compounds that can boost A3G levels, 293T cells (25,000 cells per well in 96-well plate) stably expressing A3G-Luc protein or A3G-Luc/Vif proteins were plated. After 24 hrs post plating culture medium was replaced with 100 μl of new medium containing either DMSO as a control or various compounds (10 μM concentration). After 48 hrs of incubation with compounds culture medium was removed from each well and replaced with 100 μl of Britelite Plus luciferase assay substrate (PerkinElmer). Following 5 min. of incubation at room temperature, 75 μl of each cell lysate was transferred to a 96-well OptiPlate 96 (PerkinElmer) and luminescence was measured in a VICTOR X2 Multilabel Reader (PerkinElmer). Relative activity of compounds for their boosting capability A3G-Luc activity was calculated by plotting DMSO-treated A3G-Luc or A3G-Luc/Vif cells as 100%. Cellular cytotoxicity was measured by counting number of cells after 48 hrs of incubation with compounds compared to DMSO treated cells.

[2] = molecular target: A3G (Homo sapiens, UniProt Q9HC16); settings: described by others (ref. 39); cited from earlier work
A3G, sequence (Q9HC16 whole entry): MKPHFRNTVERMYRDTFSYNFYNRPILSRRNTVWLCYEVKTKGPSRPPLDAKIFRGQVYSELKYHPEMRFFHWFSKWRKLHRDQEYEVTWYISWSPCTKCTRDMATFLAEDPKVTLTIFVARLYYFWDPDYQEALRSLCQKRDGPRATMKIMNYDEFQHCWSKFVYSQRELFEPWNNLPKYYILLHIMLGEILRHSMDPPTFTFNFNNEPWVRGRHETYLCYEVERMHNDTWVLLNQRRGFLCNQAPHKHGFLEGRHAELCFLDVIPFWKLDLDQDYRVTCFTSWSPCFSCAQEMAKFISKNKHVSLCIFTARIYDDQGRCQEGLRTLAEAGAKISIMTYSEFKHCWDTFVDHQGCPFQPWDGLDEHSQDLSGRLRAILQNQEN

For `COc1ccc(C(=O)Nc2cc(OC)c(OC)c(OC)c2)cc1NC(=O)C(C)Br` (centres unmarked) [IMB-26, reference compound], the “toxicity to 293T cells” value [1] is listed as “toxic” and the “binding to A3G and degradation of A3G by Vif” value [2] is listed as “directly bind to A3G and prevent its degradation by Vif”.
